Laboratory results from article PMC6010047, “Design, synthesis and biological evaluation of novel hydroxy-phenyl-1H-benzimidazoles as radical scavengers and UV-protective agents” (Journal of Enzyme Inhibition and Medicinal Chemistry, 2017).
Read-outs that look alike come from different tables or passages of the source.

Assays:
[1] = Ferric reducing antioxidant of potency (FRAP) assay; type: biochemical; details: Trolox equivalents; mean ± SE of three experiments
Description: The ferric reducing ability of each standard solution was measured according to a modified protocol described by Guihua et al.[26]. The reagent for analysis was freshly prepared by mixing the following solutions in the reported ratio 10/1/1 (v:v:v) (i) 0.1 M acetate buffer pH 3.6, (ii) TPTZ (2,4,6-Tri(2-pyridyl)-s-triazine) 10 mmol/L in 40 mmol/HCl, (iii) ferric chloride 20 mmol/L. To a 1.9 mL of reagent were added 0.1 mL of sample proper diluted or solvent when blank was performed. Readings at fixed wavelength of the absorption maximum (593 nm) were done after 30 min, using a UV-VIS spectrophotometer; it was evaluated the absorbance increase of sample solution against the absorbance of blank reaction as parameter to calculate the antioxidant activity. The antioxidant activity is given as Trolox activity since this standard was used to perform the calibration curves.

[2] = Cytotoxicity, MTT test, 72 h; details: human, NCTC-2544 keratinocytes (immortalized, nontumorigenic)
Description: (§2) An immortalized, nontumorigenic cell line of human keratinocytes (NCTC-2544) was grown in a DMEM medium (Sigma-Aldrich Milan, Italy), supplemented with 115 units/mL of penicillin G, 115 μg/mL streptomycin, and 10% fetal calf serum (Invitrogen, Milan, Italy). Individual wells of a 96-well tissue culture microtiter plates (Falcon, Becton–Dickinson) were inoculated with 100 μL of complete medium containing 5 × 10^3 NCTC-2544. The plates were incubated at 37 °C in a humidified (5% CO2) incubator for 18 h prior to the experiments.
After medium removal, 100 μL of the drug solution, dissolved in DMSO and diluted in DMEM medium, was added to each well, incubated at 37 °C for 72 h. Final DMSO concentration never exceeded 0.5%. Cell viability was assayed by the MTT (3–(4,5-dimethylthiazol-2-yl)-2,5 diphenyl tetrazolium bromide) test as previously described by Mosmann[27].
The tests were conducted using a specific cell line of human keratinocytes (NCTC-2544). To assess cell viability, in the presence of the study compounds, before and after the irradiation, the MTT assay was performed[27]. The cytotoxicity was checked after 72 h from the incubation of the keratinocytes with compounds; moreover, the same experiments were performed in the presence of the parent PBSA.

[3] = Photochemiluminescence (PCL) method, ACL kit; type: biochemical; details: pure compound; Trolox equivalents; mean ± SE of three experiments
Description: (§1) PCL assay, based on the methodology of Popov and Lewin[23], was used to measure the antioxidant activity of synthesized compounds with a Photochem® apparatus (Analytik Jena, Leipzig, Germany) against superoxide anion radicals generated from luminol, a photosensitizer, when exposed to UV light (Double Bore® phosphor lamp, output 351 nm, 3 mWatt/cm^2). The antioxidant activity was measured using ACL (Antioxidant Capacity of Liposoluble substance) kit provided by the manufacturer designed to measure the antioxidant activity of lipophilic compounds[24]. […] The areas under the curves were calculated using the PCLsoft control and analysis software. […] This inhibition was used as a parameter for quantification and related to the decrease in the integral of PCL intensities caused by varying concentrations of Trolox. The observed inhibition of the signal was plotted against the concentration of Trolox added to the assay medium. The concentration of the added tested compounds was such that the generated luminescence during the 180-s sampling interval fell within the limits of the standard curve. The antioxidant assay was carried out in triplicate for each sample, and 20 μL of the diluted compound in HPLC-grade methanol (ACL) was sufficient to correspond to the standard curve.

[4] = UV spectra: λmax and molar extinction coefficient; type: physicochemical; details: for λ max: aqueous solution at pH 7; for ɛ (molar extinction coefficient): aqueous solution at pH 7, at λ max, linear regression Lambert–Beer
Description: Sun protection factor (SPF) is related to the UV absorption of the substances, so before including the molecules in cosmetic formulations we evaluated the wavelength of maximum absorption (λmax) and the molar extinction coefficient (ɛ) of each molecule in aqueous solution at pH 7. The UV spectra were recorded between 270 and 420 nm (20 nm higher and lower then UVA and UVB range) to verify the spectrum profile of the molecules within UVA and UVB region. UV spectrum of PBSA is an UVB filter and presents a λmax of 302 nm; after this peak, the absorbance fades going to higher wavelength until almost zero around 325 nm, and then, it provides no absorption in the UVA region. Molecules spectra overlapped for category according to the substituent in position 5 of the benzimidazole ring are shown in Figures 1, 2 and 3; PBSA spectrum is presented in all figures for comparison.
From the spectra appears that the lambda maxima (Table 2) of the new molecules shifted toward higher wavelength and in general the range of absorption curve was wider than PBSA. Within a group of molecules, the batochromic shift was more marked for the molecules that have a hydroxyl moiety in position 2 of the phenyl ring (4, 5, 6, 9, 10, 11, 13 and […]); the effect of ortho substituted is known to produce this shift toward higher wavelength. Increasing the number of auxochrome groups on phenyl ring an increment in the absorption range occurred, compounds with three hydroxyl on the phenyl ring (6, 11, 15) had the broadest spectrum and their lambda maxima shifted at the highest wavelength compared to the other compounds. The absorption spectrum of molecules with the same number and position of hydroxyl seemed only slightly influenced by the substituent in position 5 of the benzimidazole ring. After having established the lambda maxima for every compound, solutions at different concentrations were prepared to calculate the molar extinction coefficient by means of linear regression and applying Lambert–Beer equation (Table 2).

[5] = PCL antioxidant activity of finished formulations; type: biochemical; details: 3% (w/w) compound in O/W formulation
Description: as §1
It was decided to use a standard formulation oil in water (O/W).
In particular, molecules with phenolic hydroxyl in the ortho position on the phenyl ring (4, 5, 9, 10 and 13) had better and higher UVA/UVB ratio and critical wavelength, although they have the SPF value less than lead compound. Formulation containing products 2 and 14, which have a phenolic hydroxyl at the para position on the phenyl ring, have shown good values in terms of SPF, greater UVA protection factor, critical wavelength and also higher UVA/UVB ratio than PBSA, but yet lower than the molecules containing hydroxyl on the phenyl ring in ortho. […] Compound 8 has lower SPF than 3, but higher than PBSA; in comparison with 3, molecules 8 and 12 presented higher UVA/UVB ratio and critical wavelength. Regarding compounds with three hydroxyls on phenyl ring, they have good UVA filtering parameters, their critical wavelengths are the highest and SPF is higher than PBSA for molecule 6, while SPF of 15 is slightly lower and decreases further in molecule 11. Thus, it can be observed that parameters are mainly influenced by the number and position of the hydroxyl groups on the phenyl ring rather than the substituent in the 5-position of benzimidazole. Concomitantly, all formulations were analyzed to assess whether the antioxidant power was maintained. […] In Table 4, the antioxidant activity, measured by PCL method, of finished formulations is reported; as it can be seen results were in agreement with that obtained testing the pure compounds. […] Formulations containing compounds 3, 8 and 12 presented highest antioxidant capabilities; these are followed, but with important decrease in antioxidant capacity, by formulations with compounds 6, […] and 15 that have three hydroxyl moieties on phenyl ring.

NCTC-2544 cells = assay: Phototoxicity / cellular photoprotection, UVA or UVB irradiation, MTT test; details: for viability at 50 µM: Homo sapiens, NCTC-2544, light or radiation study, 48 h; for phototoxic effect (cell survival vs irradiated control): NCTC-2544, UVA/UVB irradiation; for cell survival in relation to the irradiated control: after UVB irradiation 1 J/cm^2
Description: as §2
Two HPW 125 Philips lamps, mainly emitting at 365 nm, were used for UVA irradiation experiments. The spectral irradiance of the source was 4.0 mWcm^−^2 as measured at the sample level by a Cole-Parmer Instrument Company radiometer (Niles, IL) equipped with a 365-CX sensor. One or two PL-S 9 W/12 Philips lamps (280–370 nm; peak at 315 nm) were used for UVB irradiation experiments. To restrict the incident radiation to the range 305–370 nm, a glass filter (Schott SWG-305) was used. Total energy was detected by the same equipped with a sensor (model CX-312).
After medium removal, 100 μL of the drug solution, dissolved in DMSO and diluted with Hank’s Balanced Salt Solution (HBSS pH =7.2), was added to each well, incubated at 37 °C for 30 min, and then irradiated (20 J/cm^2 for UVA and 0.5 and 1 J/cm^2 for UVB). After irradiation, the solution was replaced with the medium and the plates were further incubated for 48 h. Cell viability was assayed by the MTT [(3–(4,5-dimethylthiazol-2-yl)-2,5 diphenyl tetrazolium bromide)] test as previously described by Mosmann[27].
Molecules were verified for their photocytotoxicity in the same cell line; the cells were treated with 50 μM solutions of compound and after 30 min were irradiated with 20 J/cm^2 UVA or with UVB at two energy amounts: 0.5 J/cm^2 and 1 J/cm^2 UVB. […] After irradiation, the solution was replaced with growth medium and the cells were further incubated for 48 h, and then, cell viability was assessed by MTT assay. […] The phototoxicity of tested molecules was compared with the ratio of cell survival of irradiated keratinocytes without substance (IC = irradiated control).

[6] = 1,1-Diphenyl-2-picryl-hydrazyl radical (DPPH) assay; type: biochemical; details: Trolox equivalents; mean ± SE of three experiments
Description: To 1.5 mL DPPH methanolic solution (0.5 mM) was added 0.750 mL of sample solution proper diluted. Samples absorbance measurements were evaluated with a UV-VIS spectrophotometer (Thermo Spectronic Helios γ, Cambridge, UK) at fixed wavelength of 517 nm. Blank sample was prepared adding methanol to DPPH solution and Trolox was used as standard reference to achieve a calibration curve. The radical-scavenging activity is expressed as inhibition ratio of initial concentration of DPPH radical and is calculated according to the formula: Inhibition percentage (Ip) = [(AB-As)/AB]·100; where AB and As are, respectively, the absorbance values of blank reaction and of the tested sample[25].

[7] = read-out: % Cell survival UVA 20 J/cm^2
[8] = read-out: % Cell survival UVB 0.5 J/cm^2
[9] = read-out: % Cell survival UVB 1 J/cm^2

Row | λ max [4] [nm] | ɛ (molar extinction coefficient) [4] | Structure (SMILES) | FRAP [1] [μmolTrolox/mmol] | IC50 at 72 h [2] [µM] | PCL [3] [μmolTrolox/mmol] | PCL of finished formulation [5] [μmol Trolox/g formulation] | viability at 50 µM (NCTC-2544 cells; [7]) [%] | viability at 50 µM (NCTC-2544 cells; [8]) [%] | viability at 50 µM (NCTC-2544 cells; [9]) [%] | phototoxic effect (cell survival vs irradiated control) (NCTC-2544 cells) | DPPH [6] [μmolTrolox/mmol] | cell survival in relation to the irradiated control (NCTC-2544 cells)
1 | 325 | 12 000 | Oc1ccc(-c2nc3ccccc3[nH]2)c(O)c1O [Compound 11, 2-(2,3,4-Trihydroxy-phenyl)-1H-benzimidazole] | 2723.19 ± 35.74 | > 50 | 1614.675 ± 19.95 | 153.35 ± 8.14 | 1.2 ± 0.2 | 45.6 ± 2.6 | 27 ± 2.4 | phototoxic effect | 1811.02 ± 61.7 | –
2 | 317 | 21 000 | O=C(O)c1ccc2[nH]c(-c3ccc(O)c(O)c3)nc2c1 [Compound 12, 2-(3,4-Dihydroxy-phenyl)-1H-benzimidazole-5-carboxylic acid] | 2433.28 ± 21.74 | > 50 | 13174.31 ± 240.68 | 1373.39 ± 19.43 | 74.3 ± 2 | 76.3 ± 3.6 | 64.5 ± 3.5 | – | 1771.82 ± 84.75 | doubled
3 | 321 | 20 000 | O=C(O)c1ccc2[nH]c(-c3ccc(O)cc3O)nc2c1 [Compound 13, 2-(2,4-Dihydroxy-phenyl)-1H-benzimidazole-5-carboxylic acid] | 31.63 ± 1.96 | > 50 | 160.26 ± 4.09 | 4.97 ± 0.17 | 80.7 ± 1.3 | 69 ± 0.2 | 57.5 ± 2.4 | – | 32.48 ± 2.38 | doubled
4 | 312 | 24 000 | O=C(O)c1ccc2[nH]c(-c3ccc(O)cc3)nc2c1 [Compound 14, 2-(4-Hydroxy-phenyl)-1H-benzimidazole-5-carboxylic acid] | 2.62 ± 0.06 | > 50 | 6.98 ± 0.27 | 0.16 ± 0.02 | 76.7 ± 3.4 | 74.2 ± 3.4 | 58.4 ± 2.5 | – | 1.185 ± 0.02 | doubled
5 | 332 | 17 000 | O=C(O)c1ccc2[nH]c(-c3ccc(O)c(O)c3O)nc2c1 [Compound 15, 2-(2,3,4-Trihydroxy-phenyl)-1H-benzimidazole-5-carboxylic acid] | 2355.15 ± 52.55 | > 50 | 1515.65 ± 75.56 | 86.99 ± 6.95 | 12.2 ± 1.3 | 60.1 ± 2.3 | 25.6 ± 2.7 | phototoxic effect | 1241.03 ± 9.43 | –
